Laboratory results published in patent publication US9586943B2, “Bilaterally-substituted tricyclic compounds for the treatment of human immunodeficiency virus type-1 (HIV-1) infection and other diseases” (CENTRO DE INVESTIGACIÓN PRINCIPE FELIPE, priority 2013, dated 2017).
Read-outs that look alike come from different tables or passages of the source. Numbered stars: 1 amine (or outer) side, 2 acyl side, 3 side chain; on linkers, the order of the positions; unused ones are H or OH. Suc = O=C(CCC(=O)[*:2])[*:1]

Key:
[1] = target: RRE RNA hairpin (internal loop IIB); assay: SPR analysis of interaction with RRE RNA hairpin; assay type: binding, HIV-1
TARc hairpin = assay: SPR binding specificity relative to control TARc hairpin; set-up: species or system HIV-1
Protocol: (§1) The interaction of these biphenyl and terphenyl compounds with the RRE RNA hairpin (SEQ. ID. No 1) was analysed using surface plasmon resonance (SPR) experiments(19). In addition to the RRE, two control RREc (SEQ. ID. No 2) and TARc (SEQ. ID. No 3) hairpins were also immobilised on the chips. In the RREc hairpin the internal loop forming the Rev high-affinity binding site is replaced with a G:G opposition, whereas in the TARc hairpin this loop is substituted with the HIV-1 Tat-binding UCU bulge(20). In this way, applicants could simultaneously assess the interaction of each ligand with RRE, RREc and TARc, obtaining important information about binding selectivity. In addition, the SPR methodology allows deduction of binding stoichiometries, which are likewise related to the specificity of the interaction between a ligand and a given RNA species. These are key considerations in the nucleic acid recognition field(4, 5, 14).
(§2) The Surface Plasmon Resonance (SPR) experiments were carried out at 25° C. with a Biacore T100 optical biosensor system, 4-channel streptavidin-derivatized Series S SA chips, and either 10 mM MES (pH 6.25), 150 mM NaCl, 1 mM EDTA and 0.005% P20 or 10 mM HEPES pH 7.4, 150 mM NaCl, 3 mM EDTA and 0.005% P20 aqueous solutions as mobile phases. After immobilizing approximately 300 response units (RU) of the RRE, RREc and TARc RNA hairpins on the chips, the compounds were injected during 10-minute periods at a flow rate of 20 μL/min and at concentrations generally ranging from 0.01 μM to 100.0 μM, and then allowed to dissociate for 10 more minutes. The RNA surfaces were regenerated with solutions containing 0.5 to 1 M NaCl and 10 to 100 mM NaOH, depending on the ligand.
(§3) RNA-ligand SPR equilibrium dissociation constants (Kd) were determined by fitting the sensorgrams to one-site or two-site equations:
[formula] [formula] where RU is the response in the steady-state region of the sensorgrams, C is the concentration of free compound in equilibrium with the complex, RUmax is the maximum response and RI is an offset term accounting for the bulk refractive index contribution of the sample. In these models, Kd, RUmax and RI are adjustable parameters, and the stoichiometry of each binding site was determined by comparing the fitted RUmax values with the predicted ones, calculated from the molecular weights of RNA and compound and the amount of RNA in the flow cell(32). The two-site equation was only utilized if it provided a clear curve-fitting improvement over the one-site model. […] All SPR experiments were double-referenced(33).

RREc hairpin = assay: SPR binding specificity relative to control RREc hairpin; set-up: species or system HIV-1
Protocol: as §1, §2, §3
[formula] [formula] where RU is the response in the steady-state region of the sensorgrams, C is the concentration of free compound in equilibrium with the complex, RUmax is the maximum response and RI is an offset term accounting for the bulk refractive index contribution of the sample. In these models, Kd, RUmax and RI are adjustable parameters, and the stoichiometry of each binding site was determined by comparing the fitted RUmax values with the predicted ones, calculated from the molecular weights of RNA and compound and the amount of RNA in the flow cell(32). The two-site equation was only utilized if it provided a clear curve-fitting improvement over the one-site model. The specificity of the RRE interaction was quantified by calculating the Kd(RREc)/Kd(RRE) and […] ratios. All SPR experiments were double-referenced(33).

[2] = test system: Escherichia coli (ATCC 53868); assay: Disk diffusion assay (Kirby-Bauer), E. coli; assay type: cell-based; settings: disk potency 20 μg, 8 mm discs, 16-18 hours at 37° C.
[3] = target: RRE-Rev34-50 interaction (RRE hairpin and frevp); assay: Fluorescence polarization displacement assay of the RRE-Rev34-50 interaction; assay type: binding, HIV-1
[4] = test system: Staphilococcus aureus (ATCC 35556); assay: Disk diffusion assay (Kirby-Bauer), S. aureus; assay type: cell-based; settings: disk potency 20 μg, 8 mm discs, 16-18 hours at 37° C.
HIV-1 (NL4.3-Ren) = assay: microbe, parasite or virus in culture; assay type: cell-based; settings: for EC50: Human immunodeficiency virus 1, 48 h, read-out: EC50 (NL4.3-Ren)
[5] = Cellular viability (CellTiter Glo); assay type: cell-based; settings: human, MT-2 cells; 48 h, CellTiter Glo; read-out: CC50 (celular viability)
RRE hairpin = assay: Two-dimensional NMR (TOCSY) titration of the RRE hairpin; assay type: binding, HIV-1; settings: D2O, pH 6.0
MT-2 cells = assay: Cellular viability (CellTiter Glo); assay type: cell-based
[6] = 25° C., pH 7.4, high affinity site when two-site model, footnote d compounds: ligand range 0.1-25 μM, read-out: Kd(RRE)
[7] = read-out: IC50 (RRE-Rev 50% inhibitory concentration), fluorescence polarization, 25° C., 60 nM RRE and 10 nM frevp
[8] = 25° C., pH 6.3, high affinity site when two-site model, JB-399 and IIS-530: ligand range 0.1-25 μM, read-out: Kd(RRE)

COc1cc(CCN)c(-c2ccc(-c3cc(CCN)c(OCc4ccc(C(F)(F)F)cc4)c(CCN)c3)c(OC)c2)c(CCN)c1 [IIS-478, 2,2′,2″,2′″-(3′,4-dimethoxy-4″-((4-(trifluoromethyl)benzyl)oxy)-[1,1′:4′,1″-terphenyl]-2,3″,5″,6-tetrayl)tetraethanamine]
Kd [1, 6]: 14 ± 5.1 µM
Kd(TARc)/Kd(RRE) (TARc hairpin; 25° C., pH 7.4): 9.6
Kd(RREc)/Kd(RRE) (RREc hairpin; 25° C., pH 7.4): 10.3
disk susceptibility of E. coli (diameter of the inhibition area) [2]: inactive
IC50 [3, 7]: 232 ± 32.7 µM
disk susceptibility of S. aureus (diameter of the inhibition area) [4]: inactive
EC50 (HIV-1 (NL4.3-Ren)): > 100 µM
CC50 at 48 h [5]: > 100 µM

CCc1cc(-c2c(CCN)cc(OC)cc2CCN)cc(CC)c1-c1cc(CCN)c(O)c(CCN)c1 [IIS-806, 2″,3,5,6″-Tetrakis(2-aminoethyl)-2′,6′-diethyl-4″-methoxy-(1,1′:4′,1″-terphenyl)-4-ol chlorhydrate]
Kd [1, 6]: 8.1 ± 1.1 µM
Kd(TARc)/Kd(RRE) (TARc hairpin; 25° C., pH 7.4): 1.3
Kd(RREc)/Kd(RRE) (RREc hairpin; 25° C., pH 7.4): 1.1
IC50 [3, 7]: 56.4 ± 13.5 µM
RRE interaction by NMR chemical shift perturbation (in words) (RRE hairpin): greatest RNA chemical shift variations
inhibition of HIV-1 replication (in words) (HIV-1 (NL4.3-Ren)): inhibited HIV-1 replication
EC50 (HIV-1 (NL4.3-Ren)): 64.1 µM
CC50 at 48 h [5]: > 100 µM
cellular toxicity (in words) (MT-2 cells): no cellular toxicity

COc1cc(CCN)c(-c2c(CCN)cc(OC)cc2CCN)c(CCN)c1 [SC-30, 2,2′,2″,2′″-(4,4′-dimethoxy-[1,1′-biphenyl]-2,2′,6,6′-tetrayl)tetraethanamine]
Kd [1, 8]: > 100 µM
disk susceptibility of E. coli (diameter of the inhibition area) [2]: inactive
IC50 [3, 7]: 309 ± 68.9 µM
RRE interaction by NMR chemical shift perturbation (in words) (RRE hairpin): unspecific
disk susceptibility of S. aureus (diameter of the inhibition area) [4]: inactive
EC50 (HIV-1 (NL4.3-Ren)): 50 to 100 µM
CC50 at 48 h [5]: > 100 µM

COc1cc(CCN)c(-c2cc(CCN)c(O)c(CCN)c2)c(CCN)c1 [JB-398, 2′,3,5,6′-tetrakis(2-aminoethyl)-4′-methoxy-[1,1′-biphenyl]-4-ol]
Kd [1, 8]: 31.1 ± 5 µM
Kd(TARc)/Kd(RRE) (TARc hairpin; 25° C., pH 6.3): 3.7
IC50 ([3]; fluorescence anisotropy, read-out: IC50 (RRE-Rev34-50 inhibition)): 22.1 µM
RRE interaction by NMR chemical shift perturbation (in words) (RRE hairpin): weak
EC50 (HIV-1 (NL4.3-Ren)): > 100 µM
CC50 at 48 h [5]: > 100 µM

COc1cc(CCN)c(-c2ccc(-c3cc(CCN)c(OCC4CCCCC4)c(CCN)c3)c(OC)c2)c(CCN)c1 [IIS-530, 2,2′,2″,2′″-(4″-(cyclohexylmethoxy)-3′,4-dimethoxy-[1,1′:4′,1″-terphenyl]-2,3″,5″,6-tetrayl)tetraethanamine]
Kd [1, 8]: 46.2 ± 32 µM
Kd(TARc)/Kd(RRE) (TARc hairpin; 25° C., pH 6.3): 4.0
Kd(RREc)/Kd(RRE) (RREc hairpin; 25° C., pH 6.3): 1.3
IC50 [3, 7]: 75.5 ± 39.9 µM
EC50 (HIV-1 (NL4.3-Ren)): > 100 µM
CC50 at 48 h [5]: > 100 µM

CC1(C)S[C@@H]2[C@H](NC(=O)[C@H](N)c3ccccc3)C(=O)N2[C@H]1C(=O)O [Ampicillin, ampicillin]
disk susceptibility of E. coli (diameter of the inhibition area) [2]: 25.6 ± 1.7
disk susceptibility of S. aureus (diameter of the inhibition area) [4]: 38.1 ± 1.6

NC[C@H]1O[C@H](O[C@H]2[C@H](O)[C@@H](O[C@H]3O[C@H](CO)[C@@H](O)[C@H](N)[C@H]3O)[C@H](N)C[C@@H]2N)[C@H](N)[C@@H](O)[C@@H]1O [Kanamycin B, kanamycin B]
disk susceptibility of E. coli (diameter of the inhibition area) [2]: 20.0 ± 2.1
disk susceptibility of S. aureus (diameter of the inhibition area) [4]: 16.7 ± 1.2

CCc1cc(-c2c(CCN)cc(OC)cc2CCN)ccc1-c1cc(CCN)c(O)c(CCN)c1 [IIS-792, 2″,3,5,6″-tetrakis(2-aminoethyl)-2′-ethyl-4″-methoxy-[1,1′:4′,1″-terphenyl]-4-ol]
Kd [1, 6]: 8.1 ± 1.8 µM
Kd(TARc)/Kd(RRE) (TARc hairpin; 25° C., pH 7.4): 1.6
Kd(RREc)/Kd(RRE) (RREc hairpin; 25° C., pH 7.4): 1.2
IC50 [3, 7]: 93.6 ± 24.4 µM
inhibition of HIV-1 replication (in words) (HIV-1 (NL4.3-Ren)): inhibited HIV-1 replication
EC50 (HIV-1 (NL4.3-Ren)): 46.3 µM
CC50 at 48 h [5]: > 100 µM
cellular toxicity (in words) (MT-2 cells): no cellular toxicity

NC[C@H]1O[C@H](O[C@H]2[C@H](O)[C@@H](O[C@H]3O[C@H](CO)[C@@H](O)[C@H](N)[C@H]3O)[C@H](N)C[C@@H]2N)[C@H](O)[C@@H](O)[C@@H]1O [Kanamycin A, kanamycin A]
disk susceptibility of E. coli (diameter of the inhibition area) [2]: 22.0 ± 2.0
disk susceptibility of S. aureus (diameter of the inhibition area) [4]: 16.5 ± 1.1

COc1cc(CCN)c(-c2ccc(-c3cc(CCN)c(O)c(CCN)c3)cc2)c(CCN)c1 [JB-399, 2″,3,5,6″-tetrakis(2-aminoethyl)-4″-methoxy-[1,1′:4′,1″-terphenyl]-4-ol]
Kd [1, 8]: 14.4 ± 6.8 µM
Kd(TARc)/Kd(RRE) (TARc hairpin; 25° C., pH 6.3): 11.7
IC50 [3, 7]: 23.4 ± 3.6 µM
EC50 (HIV-1 (NL4.3-Ren)): > 100 µM
CC50 at 48 h [5]: > 100 µM

NC[C@H]1O[C@H](O[C@H]2[C@H](O)[C@@H](O[C@H]3O[C@H](CO)[C@@H](O)[C@H](N)[C@H]3O)[C@H](N)C[C@@H]2N)[C@H](N)C[C@@H]1O [Tobramycin, tobramycin]
disk susceptibility of E. coli (diameter of the inhibition area) [2]: 18.8 ± 2.2
disk susceptibility of S. aureus (diameter of the inhibition area) [4]: 17.6 ± 0.8

COc1cc(CCN)c(-c2ccc(-c3cc(CCN)c(OCc4ccccc4)c(CCN)c3)c(OC)c2)c(CCN)c1 [IIS-311, 2,2′,2″,2′″-(4″-(benzyloxy)-3′,4-dimethoxy-[1,1′:4′,1″-terphenyl]-2,3″,5″,6-tetrayl)tetraethanamine]
Kd [1, 8]: 9.4 ± 5.7 µM
Kd(TARc)/Kd(RRE) (TARc hairpin; 25° C., pH 6.3): 3.2
Kd(RREc)/Kd(RRE) (RREc hairpin; 25° C., pH 6.3): 4.9
IC50 [3, 7]: 162 ± 118 µM
EC50 (HIV-1 (NL4.3-Ren)): > 100 µM
CC50 at 48 h [5]: > 100 µM

succynyl-TRQARRNRRRRWRERQRAAAAR-amide (Suc-TRQARRNRRRRWRERQRAAAAR-NH2; SMILES C[C@H](NC(=O)[C@H](C)NC(=O)[C@H](C)NC(=O)[C@H](CCCNC(=N)N)NC(=O)[C@H](CCC(N)=O)NC(=O)[C@H](CCCNC(=N)N)NC(=O)[C@H](CCC(=O)O)NC(=O)[C@H](CCCNC(=N)N)NC(=O)[C@H](Cc1c[nH]c2ccccc12)NC(=O)[C@H](CCCNC(=N)N)NC(=O)[C@H](CCCNC(=N)N)NC(=O)[C@H](CCCNC(=N)N)NC(=O)[C@H](CCCNC(=N)N)NC(=O)[C@H](CC(N)=O)NC(=O)[C@H](CCCNC(=N)N)NC(=O)[C@H](CCCNC(=N)N)NC(=O)[C@H](C)NC(=O)[C@H](CCC(N)=O)NC(=O)[C@H](CCCNC(=N)N)NC(=O)[C@@H](NC(=O)CCC(=O)O)[C@@H](C)O)C(=O)N[C@@H](C)C(=O)N[C@@H](CCCNC(=N)N)C(N)=O) [revp, reference compound]
Kd ([1]; one-site model, read-out: equilibrium dissociation constant Kd (RRE)): 0.0042 ± 0.0034 µM
Kd(TARc)/Kd(RRE) (TARc hairpin): 4.4
Kd(RREc)/Kd(RRE) (RREc hairpin): 14.5
Ki ([3]; calculated from IC50, read-out: Ki inhibition constant): 0.0041 ± 0.0008 µM
